According to ChEMBL document CHEMBL1139715, “Synthesis of 3,6-bis[H-Tyr/H-Dmt-NH(CH2)m,n]-2(1H)pyrazinone derivatives: function of alkyl chain length on opioid activity” (Bioorg Med Chem Lett, 2006):
pIC50, pKi: −log10 of the molar value.

Key:
[1] = target: Mu-type opioid receptor (Rattus norvegicus, UniProt P33535); test: Displacement of [3H]DAMGO from mu opioid receptor in rat synaptosomes P2 fraction; format: subcellular, Brain
[2] = target: Delta-type opioid receptor (Rattus norvegicus, UniProt P33533); test: Displacement of [3H]deltorphin II from delta opioid receptor in rat synaptosomes P2 fraction; format: subcellular, Brain
Sequence of Delta-type opioid receptor (Rattus norvegicus, UniProt P33533) (P33533 whole entry): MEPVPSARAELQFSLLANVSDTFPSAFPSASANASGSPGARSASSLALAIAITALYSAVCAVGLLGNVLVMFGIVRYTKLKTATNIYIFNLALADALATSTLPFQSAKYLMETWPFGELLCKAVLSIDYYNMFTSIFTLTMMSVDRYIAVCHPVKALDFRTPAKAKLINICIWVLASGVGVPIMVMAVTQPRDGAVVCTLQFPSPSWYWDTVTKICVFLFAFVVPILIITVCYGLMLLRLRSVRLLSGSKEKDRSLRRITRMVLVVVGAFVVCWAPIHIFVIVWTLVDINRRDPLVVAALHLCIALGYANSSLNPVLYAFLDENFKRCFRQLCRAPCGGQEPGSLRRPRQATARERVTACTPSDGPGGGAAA

[3] = target: Opioid receptors; mu & delta (Rattus norvegicus) (UniProt P33533+P33535); test: Selectivity for rat mu opioid receptor over rat delta opioid receptor; format: protein assay
Sequence of Opioid receptors; mu & delta (Rattus norvegicus) (P33533 whole entry, looked up): as the sequence (P33533 whole entry) above
Sequence of Opioid receptors; mu & delta (Rattus norvegicus) (P33535 whole entry, looked up): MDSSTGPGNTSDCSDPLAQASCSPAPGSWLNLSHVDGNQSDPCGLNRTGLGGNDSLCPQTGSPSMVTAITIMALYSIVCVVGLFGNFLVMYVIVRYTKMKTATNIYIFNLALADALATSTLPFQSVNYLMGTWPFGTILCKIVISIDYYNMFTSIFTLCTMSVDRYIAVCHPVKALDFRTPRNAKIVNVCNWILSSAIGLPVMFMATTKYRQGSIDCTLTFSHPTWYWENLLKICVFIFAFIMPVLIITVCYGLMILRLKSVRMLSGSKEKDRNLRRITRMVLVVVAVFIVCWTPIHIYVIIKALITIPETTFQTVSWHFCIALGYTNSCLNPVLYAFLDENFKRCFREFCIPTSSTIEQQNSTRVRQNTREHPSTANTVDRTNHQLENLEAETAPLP

[4] = target: Delta-type opioid receptor (Mus musculus, UniProt P32300); test: (§1) Activity at delta opioid receptor assessed as inhibition of muscle contraction in mouse vas deferens assay; format: functional, tissue-based
Sequence of Delta-type opioid receptor (Mus musculus, UniProt P32300) (P32300 whole entry): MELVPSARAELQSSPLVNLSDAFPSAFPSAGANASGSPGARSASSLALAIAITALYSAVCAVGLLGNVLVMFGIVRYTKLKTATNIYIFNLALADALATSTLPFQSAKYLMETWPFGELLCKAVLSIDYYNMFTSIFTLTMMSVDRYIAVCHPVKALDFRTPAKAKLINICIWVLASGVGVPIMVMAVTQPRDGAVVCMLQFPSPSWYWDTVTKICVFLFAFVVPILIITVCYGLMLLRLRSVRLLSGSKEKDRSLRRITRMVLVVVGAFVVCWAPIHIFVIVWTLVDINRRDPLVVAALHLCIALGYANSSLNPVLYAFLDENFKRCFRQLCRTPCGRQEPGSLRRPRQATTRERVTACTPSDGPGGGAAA

[5] = target: Delta-type opioid receptor (Mus musculus) (UniProt P32300); test: as §1; format: functional, tissue-based; conditions: for inhibition: concentration not given here; for Activity: filed as partial agonist
Sequence of Delta-type opioid receptor (Mus musculus) (P32300 whole entry): as above

[6] = target: Mu-type opioid receptor (Cavia porcellus, UniProt P97266); test: Activity at mu opioid receptor by guinea pig ileum assay; format: functional, tissue-based
Sequence of Mu-type opioid receptor (Cavia porcellus, UniProt P97266) (P97266 whole entry): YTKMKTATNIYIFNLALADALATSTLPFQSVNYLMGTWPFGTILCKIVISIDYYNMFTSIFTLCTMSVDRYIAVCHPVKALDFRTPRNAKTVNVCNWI

Sequence of Mu-type opioid receptor (Rattus norvegicus, UniProt P33535) (P33535 whole entry): as the sequence (P33535 whole entry, looked up) above

Compound	pKi [1]	pKi [2]	Ratio Ki [3]	pIC50 [4]	inhibition [5] [%]	Activity [5]	pIC50 [6]
Cc1nc(CCCCNC(=O)[C@@H](N)Cc2ccc(O)cc2)c(=O)[nH]c1CCCNC(=O)[C@@H](N)Cc1ccc(O)cc1	8.12	6.03	220	–	–	–	–
Cc1cc(O)cc(C)c1C[C@H](N)C(=O)NCCCCc1[nH]c(=O)c(CCCNC(=O)[C@@H](N)Cc2c(C)cc(O)cc2C)nc1C	10.29	7.73	369	< 5.00	44	Partial agonist	8.31
Cc1cc(O)cc(C)c1C[C@H](N)C(=O)NCCCCc1nc(C)c(CCCNC(=O)[C@@H](N)Cc2c(C)cc(O)cc2C)[nH]c1=O	10.68	7.50	1520	7.59	60	Partial agonist	8.75
Cc1nc(CCCNC(=O)[C@@H](N)Cc2ccc(O)cc2)c(=O)[nH]c1CCCCNC(=O)[C@@H](N)Cc1ccc(O)cc1	7.56	5.56	65	–	–	–	–
